Assays:
[1] = tested on: brain cancer cells (U87MG); test: Colony-forming assay with gamma irradiation, brain cancer cells; type: cell-based, human; conditions: 1 μM to 10 μM for 2 hours, gamma radiation, 7 days, FIG. 9
Protocol: (§1) Lung cancer cells (H1299, ATCC, CRL-5803™), brain cancer cells (U87MG, ATCC, HTB-14™ human glioblastoma), breast cancer cells (MDA-MB231, ATCC, HTB-26™ human breast adenocarcinoma), and colorectal cancer cells (HCT116, ATCC, CCL-247™ human colorectal carcinoma) were each inoculated in each well of a 96-well plate containing Rosewell Park Memorial Institute medium (RPMI) 1640 enriched with 10% FBS, 100 μg/ml of streptomycin, and 100 unit/ml of penicillin. Then, these cells were each treated with 2-(5-bromonaphthalene-1-yl)benzo[d]oxazole-5-amine (Derivative #1) for 2 hours in a concentration of 1 μM to 10 μM, were irradiated using gamma radiation according to radiation dose, and were cultured for 7 days under conditions of 5% CO2 and a temperature of 37° C. The cultured cells were washed out with phosphate buffered saline (PBS), and then, were stained with a mixture of 1% methylene blue and 100% methanol. Afterwards, a number of colony-forming cells was counted, and all the treatment above were repeatedly performed 3 times.

[2] = tested on: colorectal cancer cells (HCT116); test: Colony-forming assay with gamma irradiation, colorectal cancer cells; type: cell-based, human; conditions: HCT116, 1 μM to 10 μM for 2 hours, gamma radiation, 7 days, FIG. 11
Protocol: as §1

Nrf2 protein = biological target: T1, Nrf2 protein (Homo sapiens, UniProt Q16236); test: Western blot of Nrf2 protein in tBHQ-treated lung cancer cells; type: cell-based; conditions: 5 μM or 10 μM, 2 hours, FIG. 5
T1 construct: endogenous in cells
T1 sequence (Q16236 1-605): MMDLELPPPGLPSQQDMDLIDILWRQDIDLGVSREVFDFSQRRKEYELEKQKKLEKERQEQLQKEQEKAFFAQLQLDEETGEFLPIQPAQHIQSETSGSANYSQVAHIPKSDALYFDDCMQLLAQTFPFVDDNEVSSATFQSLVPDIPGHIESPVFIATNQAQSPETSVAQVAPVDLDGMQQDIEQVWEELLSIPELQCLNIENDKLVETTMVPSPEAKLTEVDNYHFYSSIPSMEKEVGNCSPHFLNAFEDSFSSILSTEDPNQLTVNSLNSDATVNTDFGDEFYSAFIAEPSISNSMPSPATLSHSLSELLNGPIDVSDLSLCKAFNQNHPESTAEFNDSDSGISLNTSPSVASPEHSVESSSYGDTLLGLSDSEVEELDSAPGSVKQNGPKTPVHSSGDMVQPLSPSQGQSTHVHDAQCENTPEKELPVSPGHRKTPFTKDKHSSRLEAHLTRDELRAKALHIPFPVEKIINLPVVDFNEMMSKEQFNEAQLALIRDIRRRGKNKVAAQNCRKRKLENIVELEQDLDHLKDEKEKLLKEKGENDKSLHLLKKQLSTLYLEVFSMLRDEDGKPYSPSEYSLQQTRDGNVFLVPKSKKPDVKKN
Protocol: (§2) By using a western blot, it was confirmed whether 2-(5-bromonaphthalene-1-yl)benzo[d]oxazole-5-amine (Derivative #1), which is a Nrf2 inhibitor, has targeted a Nrf2 protein and its downstream antioxidant enzyme heme oxygenase (HO)-1, based on the inhibitory activity of the ARE-pGL3 luciferase.
(§3) The lung cancer cells were treated with 2-(5-bromonaphthalene-1-yl)benzo[d]oxazole-5-amine (Derivative #1) in a concentration of about 5 μM or about 10 μM, and 2 hours later, the protein expression was analyzed to measure amounts of Nrf2 and HO-1 proteins, which were increased by tBHQ treatment.
(§4) First, the cells treated with 2-(5-bromonaphthalene-1-yl)benzo[d]oxazole-5-amine (Derivative #1) were obtained, and then, cytosolic fractions were obtained therefrom by using a method commonly used in the art.
(§5) The cytosolic fractions were separated by electrophoresis using 10% gradient SDS-PAGE, and then, were transferred to a nitrocellulose membrane (BioRad, Hercules, Calif., USA). The membrane was blocked with 5% skim milk, and then, a reaction with primary antibodies, e.g., anti-Nrf2 (Abcam, USA) and an HO-1 antibody (Oncogene Research Products, USA), was allowed. […]

[3] = tested on: breast cancer cells (MDA-MB231); test: Colony-forming assay with gamma irradiation, breast cancer cells; type: cell-based, human; conditions: MDA-MB231, 1 μM to 10 μM for 2 hours, gamma radiation, 7 days, FIG. 10
Protocol: as §1

Nrf2 = test: ARE-pGL3 (Nrf2-responsive) luciferase reporter analysis in tBHQ-treated lung cancer cells; type: cell-based
Protocol: Lung cancer cells (H1299) purchased from American Type Culture Collection (ATCC, CRL-5803™) were cultured in Dulbecco's modified Eagle's medium (DMEM) enriched with 10% fetal bovine serum (FBS), 100 μg/ml of streptomycin, and 100 unit/ml of penicillin, under conditions of 5% CO2 and a temperature of 37° C.
Then, the cells were transformed by using Lipofectamine 2000 (In vitrogen, Life technologies, USA) (i.e., a plasmid transfection reagent used in DMEM) so that an antioxidant response element (ARE)-pGL3 luciferase plasmid to which an Nrf2 transcription factor can bind was introduced to the cells, according to the manufacturer's instructions.
About 20,000 of the transformed cells were inoculated in each well of a 96-well plate, and then, the cells were cultured for 24 hours under the same conditions described above. Afterwards, tertiary butylhydroquinone (tBHQ) that activates ARE was added to each well. Accordingly, it was confirmed that activity of luciferase was increased at least about 3 times as large as activity of luciferase in cells that were not treated with tBHQ.
Next, the tBHQ-treated cells were additionally treated with 2-(5-bromonaphthalene-1-yl)benzo[d]oxazole-5-amine (ChemBridge, cat#5721754, San Diego, Calif., USA) (Derivative #1) in concentration of 1 μM, 5 μM, and 10 μM, and then, were incubated for 18 hours. […]

[4] = tested on: lung cancer cell strain (H1299); test: CCK-8 analysis after derivative plus doxorubicin (anticancer agent sensitivity); type: cell-based; conditions: 48 hours, FIG. 13
Protocol: In order to confirm whether the above-described benzo[d]oxazole derivative that increases the apoptotic effects of ROS also have such apoptotic effects when the benzo[d]oxazole derivative is used in combination with, other than radiation, an anticancer agent to produce ROS, the synthesized benzo[d]oxazole derivative was treated in combination with doxorubicin, which is an anticancer agent.
The lung cancer cell strain (H1299) was treated with each of the synthesized benzo[d]oxazole derivatives (Derivatives #1 to #10) for 2 hours in a concentration of 10 μM, and then, were treated with doxorubicin in a concentration of 150 nM. After 48 hours of the treatment, CCK-8 for the determination of cell viability was used to measure the lung cancer cells that were died by apoptosis.

[5] = tested on: lung cancer cells (H1299); test: ROS production by DCF-DA staining and FACS, combined with irradiation; type: cell-based
Protocol: The lung cancer cells (H1299) that were cultured in the same manner as in Example 1 were treated with dihydrodichlorofluorescein diacetate (DCF-DA, Sigma, USA) and were subjected to fluorescence staining. The stained cells were then treated with 2-(5-bromonaphthalene-1-yl)benzo[d]oxazole-5-amine (Derivative #1) for 2 hours in a concentration of 5 μM or 10 μM, and 5 Gy of irradiation. Afterwards, an increase in ROS production upon inhibition of Nrf2 was analyzed by FACS.
In addition, in order to confirmed whether the values measured by FACS analysis refer to the ROS production, the lung cancer cells (H1299) were treated with 2 mM of N-acetyl-L-cysteine (NAC), which is a ROS inhibitor, and then, were treated in combination with 2-(5-bromonaphthalene-1-yl)benzo[d]oxazole-5-amine (Derivative #1) in a concentration of 10 μM and irradiation. As a result, it was confirmed that the ROS production was inhibited.

[6] = tested on: lung cancer cells (H1299); test: CCK-8 cell viability analysis (cytotoxicity of the derivative alone); type: cell-based; conditions: 1 μM, 5 μM and 10 μM, FIG. 2
Excerpt: (§6) Here, in order to confirm that the inhibitory activity of luciferase was caused by an Nrf2 inhibitor, rather than by apoptosis of the cells, cell counting kit-8 (CCK-8) (Dojindo, Japan) for the determination of cell viability and a spectroscopic device (Labsystems, USA) were used to measure absorbance values of the cells at a wavelength of 480 nm.
as §6, with “by” for “by an”, “inhibitors, i.e., Derivative #2 to #10,” for “inhibitor,”, “CCK-8” for “cell counting kit-8 (CCK-8)”

heme oxygenase (HO)-1 = test: Western blot of HO-1 protein in tBHQ-treated lung cancer cells; type: cell-based; conditions: 5 μM or 10 μM, 2 hours, FIG. 5
Protocol: as §2, §3, §4, §5

[7] = tested on: lung cancer cells (H1299); test: Colony-forming assay with gamma irradiation, lung cancer cells; type: cell-based; conditions: H1299, 1 μM to 10 μM for 2 hours, gamma radiation, 7 days, FIG. 8
Protocol: as §1

Question: What does the source list for `Nc1ccc2oc(-c3cccc4c(Br)cccc34)nc2c1` [Derivative #1, 2-(5-bromonaphthalene-1-yl)benzo[d]oxazole-5-amine]?
Answer: apoptotic effects on cancer cells by irradiation (colony-forming cells) [1]: increased apoptotic effects; apoptotic effects on cancer cells by irradiation (colony-forming cells) [2]: increased apoptotic effects; amount of Nrf2 protein increased by tBHQ treatment (Nrf2 protein): reduced depending on the concentration; apoptotic effects on cancer cells by irradiation (colony-forming cells) [3]: increased apoptotic effects; inhibitory activity of ARE-responsive luciferase (Nrf2; tBHQ-treated H1299, 1 μM, 5 μM and 10 μM, 18 hours, FIG. 1): dependent upon concentration; apoptotic cell death relative to control group ([4]; H1299, derivative 10 μM for 2 hours then doxorubicin 150 nM): about 3.7 times; ROS production relative to 5 Gy of irradiation only ([5]; H1299, 5 μM for 2 hours plus 5 Gy irradiation): about 3.5 times; ROS production relative to 5 Gy of irradiation only ([5]; H1299, 10 μM for 2 hours plus 5 Gy irradiation): ~4.6 times; cytotoxicity (CCK-8 viability) [6]: no cytotoxicity; amount of HO-1 protein increased by tBHQ treatment (heme oxygenase (HO)-1): reduced depending on the concentration; apoptotic effects on cancer cells by irradiation (colony-forming cells) [7]: increased apoptotic effects

Question: For `CC(=O)N[C@@H](CS)C(=O)O` [NAC, N-acetyl-L-cysteine, reference compound], which “ROS production after ROS inhibitor treatment” value ([5]; H1299, 2 mM NAC, then Derivative #1 10 μM plus irradiation) is on record?
Answer: The value was “inhibited”.

Question: For `COc1cccc2c1C(=O)c1c(O)c3c(c(O)c1C2=O)C[C@@](O)(C(=O)CO)C[C@@H]3O[C@H]1C[C@H](N)[C@H](O)[C@H](C)O1` [doxorubicin, reference compound], which “apoptotic cell death relative to control group” value ([4]; H1299, doxorubicin 150 nM only) is on record?
Answer: The value was “about 1.35 times”.

Question: How did the “activity of luciferase relative to cells not treated with tBHQ” value (Nrf2; ARE-pGL3 transformed H1299 cells, tBHQ added to each well) turn out when `CC(C)(C)c1cc(O)ccc1O` [tBHQ, tertiary butylhydroquinone, reference compound] was run?
Answer: The value was “at least 3 times”.

From US9447054B2, “Anticancer supplement agent including benzo[D]oxazol derivative as effective ingredient” (KOREA INSTITUTE OF RADIOLOGICAL & MEDICAL SCIENCES, priority 2014, dated 2016)
